Reference: PMC10102643, “A mass balance study of [^14C]SHR6390 (dalpiciclib), a selective and potent CDK4/6 inhibitor in humans” (Frontiers in Pharmacology, 2023)

Test: Quantitative metabolite radioprofiling in pooled plasma, urine and stool (UHPLC-FC / HRMS)
Format: in vivo, human
Details: pooled 0–168 h stool
Experimental: The plasma sample (15 mL) after pooled was added 15 mL methanol and 15 mL acetonitrile and centrifugation (3,500 rpm, 10 min, 4°C). Extract the centrifuged solid with 7.5 mL water and 22.5 mL methanol acetonitrile (50:50, v: v). The first two extracted supernatants were combined and concentrated. The concentration of the substance is at 200 μL Acetonitrile water (20:80, v: v) was dissolved again and centrifuged again (3,600 rpm, 10 min, 4°C). Part of the supernatant was injected into the UHPLC-FC (Fraction collector) system (Thermo). The eluent from the UHPLC was collected into the Deepwell LumaPlate 96 (PerkinElmer) at the rate of 10 s per well within minutes. The total collection time is 35 min. The plates were dried by Integrated SpeedVac (Thermo), and the radiation value of each well were detected by a microplate reader (Sense Beta Hidex, Finland). Data were reconstructed to radio-chromatogram by Laura software (Lablogic, United Kingdom) to give the radio profiling of plasma.
The combined samples were centrifuged, concentrated by N2 and dissolved in a 200 μL mixture of 40 mL acetonitrile and 160 mL-water, and 120 μL was injected into the UHPLC-FC system (Thermo). Other operation steps are the same as those of plasma.
Add 6 mL methanol acetonitrile (50:50, v: v) to the combined fecal homogenate (2 g) sample. The mixture was then whirled (1 min) and centrifuged6 (3,500 rpm, 10 min, 4°C). […]

abundance in stool (in words): minor metabolites
Compound: CC(=O)c1c(C)c2cnc(Nc3ccc(C(CCN)CCO)cn3)nc2n(C2CCCC2)c1=O (stereo not shown) [M464-2]
